A melting point compilation (Tetko et al.; mined from patent text by program, amines drawn as free bases though some values may be those of a salt)

melting point [°C]	Compound
115 to 117	CCCCCC(C)N(Cc1ccc(C(C)(C)C)cc1)C(Nc1ccc(OC)cc1OC)=C1C(=O)COC1=O (stereo not drawn)
205 to 206	CNC(=O)NCc1cccc(-c2csc(N=C(N)N)n2)n1
101 to 112	CCCCCCCCS(=O)(=O)NC(Cc1cc2c(N)nccc2s1)C(=O)N1CCC(C)CC1 (stereo not drawn)
133 to 135	CC(C)N1C(=O)c2ccccc2N(C(=O)CCl)S1(=O)=O
> 300	O=c1[nH]c(-c2c[nH]c3ccccc23)nc2ccc(N3CCCCC3)cc12
101 to 103	CCc1c(-c2ccc(OC)cc2)cn2ccc(OC)cc12
147 to 148	COc1ccnc(CCc2nc3cc(-c4ccco4)cnc3[nH]2)c1
130	CC(=O)O[C@H]1CC[C@H]2[C@@H]3CCc4cc(O)ccc4[C@H]3[C@@H](CCCCCCCCCS(=O)(=O)CCCC(F)(F)C(F)(F)F)C[C@]12C
90	COC(=O)c1ccccc1NC(=O)N(C)CCO
105 to 110	COc1ccc(C(OC(C)=O)c2cc(OCc3ccccc3)ccc2OC)nc1 (stereo not drawn)
194 to 195	O=C(Oc1cccc(OC(=O)c2cc(O)c(O)c(O)c2)c1)c1cc(O)c(O)c(O)c1
92 to 93	OC(c1ccc(F)cc1)(c1ccc(F)cc1)C1CCN(CCCOc2ccc(Cl)cc2)CC1
168 to 172	Cc1cnc(CCNC(=O)c2ccccc2NC(=O)c2cccc(C(F)(F)F)c2)[nH]1
148 to 150	CC(=O)OC1CSC(Oc2cncc(-c3ncccc3C)c2)C(OC(C)=O)C1OC(C)=O (stereo not drawn)
204 to 230	Nc1nc(O)c2c(n1)NCC(CCc1ccc(C(=O)N[C@@H](CCC(=O)O)C(=O)O)s1)C2 (stereo partly drawn)
96 to 98	COC1=C(OC)C(=O)C(CCCCCCCCCC(=O)N[C@H](Cc2ccccc2)C(=O)O)=C(C)C1=O
238 to 241	COc1ccc(CNC(=O)c2cc3c(=O)n(Cc4ccc([N+](=O)[O-])nc4)c(=O)n(C)c3s2)cc1
67	Nc1cc2c(cc1Sc1ccccc1)CCC2
254 to 256	O=c1c2cc(C=NO)ccc2oc2ncccc12

melting point [°C]	Compound
214	Cc1cc(C)c2nc(CCCCl)n(-c3ccc(C(C(=O)O)C4CCCC4)cc3)c2n1 (stereo not drawn)
196	CCOC(=O)C1=CC(C(=O)c2cc(Cl)c(C)cc2O)=CN2CCc3c([nH]c4ccccc34)C12C(=O)OCC (stereo not drawn)
96 to 98	CCCCOC(=O)c1cnc(C(=O)O)c(OC)c1
212 to 220	CC12CC(NC(=O)OCC(Cl)(Cl)Cl)C3C(CCC4CC(O)CCC43C)C1CCC2C(=O)O (stereo not drawn)
155 to 158	COc1ccc(S(=O)(=O)n2ccc3ccnc(N(C)C)c32)cc1
188 to 190	Nc1ncnc2cccc(Oc3ccc(F)cc3)c12
245	O=C(NNC(=O)c1cccc([N+](=O)[O-])c1)c1cccc([N+](=O)[O-])c1
89 to 92	COC(=O)CCc1cc2cc(Cl)ccc2n1S(=O)(=O)c1ccc(Cl)cc1
68 to 70	CSCC(=O)N=C(SC)N(C)N=Cc1ccccc1
197 to 199	CNC(=O)c1ccccc1Nc1nc(Nc2cc3c(cc2OC)NC(=O)CCC3(C)C)ncc1Cl
162 to 168	COC(=O)c1cc2nc(-c3ccccc3)nn2cc1F
272 to 274	COC(=O)Nc1nc2cc(S(=O)CC3CCCCC3)ccc2[nH]1 (stereo not drawn)
125	CN(C)C(=O)C1=C(C(=O)Nc2ccc(Cl)cc2)CCCC1
96 to 98	CC(C)(Oc1ccc(C#N)cc1)C(O)Cc1ccncn1 (stereo not drawn)
222 to 223	O=[N+]([O-])c1ccc2c(c1)C(O)c1cccnc1CC2 (stereo not drawn)
102 to 103	Fc1ccc(C(c2ccc(F)cc2)C2CCN(CCCOc3c(Cl)cccc3Cl)CC2)cc1
197 to 199	O=C(Nc1ccccc1Cl)Nc1nc(=O)n(CC2CC2)cc1F
161 to 162	CC(=O)N(C)c1ccc(C(=O)N2CCN(CCc3ccc(Br)cc3)CC2)cc1
163 to 165	COc1cc2c(cc1OCc1ccccc1)CCCC(C(=O)O)=C2
